Laboratory results reported in patent EP0359821A1, “METHOD OF STERILIZING PLANT ANTHERS” (priority 1988, dated 1989).
Where two headings read alike, the source gives them in different places.

Assays:
[1] = tested on: Tetraploider Roggen Sorte Belta; assay: Field trial of gametocidal activity, tetraploid rye Belta; format: in vivo; settings: 1% aqueous emulsion, 10 kg/ha; for response vs control in vivo at 10000 g/ha: control = 100, read-out: Prozentsatz des Ansetzens bei freier Bestäubung
in vivo = settings: mouse
[2] = tested on: Diploider Roggen Sorte Chulpan; assay: Field trial of gametocidal activity, diploid rye Chulpan; format: in vivo; settings: single compounds, 1% aqueous emulsion, 10 kg/ha; for Anzahl von Körnern der Ähre bei freier Bestäubung / Anzahl von Körnern der Ähre im Isolator / percent sterility at 10000 g/ha / pest or weed control at 10000 g/ha: V. or VI. period; for percent sterility at 10000 g/ha: read-out: Prozentsatz der Sterilität; for pest or weed control at 10000 g/ha: read-out: Prozentsatz der Sterilität, Chulpan
From the text: Bei Weizen und Tritikale werden Einzelisolatoren verwendet.
Pflanzen von diploidem Roggen Sorte Chulpan werden in der V. oder VI.
Der Verbrauch an Sterilisationsmitteln beträgt 10 kg/ha.

[3] = tested on: Winterweizens Sorte Mironovskaya 808; assay: Field trial of gametocidal activity (anther sterilisation), winter wheat; format: in vivo, Weizen; settings: 2% aqueous emulsion, 20 kg/ha; for Anzahl von Körnern der Ähre bei freier Bestäubung / Anzahl von Körnern der Ähre im Isolator / pest or weed control at 20000 g/ha / percent sterility at 20000 g/ha: V. or VI. period of organogenesis; for pest or weed control at 20000 g/ha / percent sterility at 20000 g/ha: read-out: Prozentsatz der Sterilität; for response vs control in vivo at 20000 g/ha: control = 100, read-out: Prozentsatz des Ansetzens bei freier Bestäubung
[4] = tested on: Diploider Roggen Sorte Kharkovskaya 55; assay: Field trial of gametocidal activity, diploid rye Kharkovskaya 55; settings: 1% aqueous emulsion, 6 kg/ha; for Anzahl von Körnern der Ähre bei freier Bestäubung / Anzahl von Körnern der Ähre im Isolator / Prozentsatz der Sterilität: V. and VI. periods; for Prozentsatz des Ansetzens bei freier Bestäubung: control = 100
[5] = tested on: Sommerweizen Sorte Moskovskaya 35; assay: Field trial of gametocidal activity, spring wheat; format: in vivo, Weizen; settings: 1% aqueous emulsion; for Anzahl von Körnern der Ähre bei freier Bestäubung / Anzahl von Körnern der Ähre im Isolator / percent sterility at 10000 g/ha: V. period; for percent sterility at 10000 g/ha: read-out: Prozentsatz der Sterilität
Roggen Sorte Voskhod 2 = assay: Field trial of gametocidal activity, diploid rye Voskhod 2; format: in vivo; settings: 1% aqueous emulsion, 8 kg/ha; for Anzahl von Körnern der Ähre bei freier Bestäubung / Anzahl von Körnern der Ähre im Isolator / Prozentsatz der Sterilität: V. or VI. period; for Prozentsatz des Ansetzens bei freier Bestäubung: control = 100
[6] = tested on: Hirse Sorte K-9693 Kormovoe 1; assay: Field trial of gametocidal activity, millet K-9693 Kormovoe 1; settings: 1% aqueous emulsion, 10 kg/ha; for Anzahl von Körnern der Rispe bei freier Bestäubung / Anzahl von Körnern der Rispe im Isolator / Prozentsatz der Sterilität: V. or VI. period; for Prozentsatz des Ansetzens bei freier Bestäubung: control = 100
[7] = tested on: Diploider Roggen Sorte Gibrid 340/65; assay: Field trial of gametocidal activity, diploid rye Gibrid 340/65; settings: Gibrid 340/65 (text: 312/65), 1% aqueous emulsion, 10 kg/ha; for Anzahl von Körnern der Ähre bei freier Bestäubung / Anzahl von Körnern der Ähre im Isolator / Prozentsatz der Sterilität: V. and VI. periods; for Prozentsatz des Ansetzens bei freier Bestäubung: control = 100
[8] = tested on: Hirse Sorte Mironovskoe 94; assay: Field trial of gametocidal activity, millet Mironovskoe 94; format: in vivo; settings: 1% aqueous emulsion, 10 kg/ha; for response vs control in vivo at 10000 g/ha: control = 100, read-out: Prozentsatz des Ansetzens bei freier Bestäubung
[9] = tested on: Sonnenblume Sorte Peredovik; assay: Field trial of pollen sterilisation, sunflower Peredovik; format: in vivo; settings: 0,2% aqueous emulsion, 1,2 kg/ke (so in the source); for Ansetzen von Achänen bei freier Bestäubung in % / Ansetzen von Achänen im Isolator bei der Bestäubung mit dem Pollengemisch in %: V. or VI. period
From the text: Pflanzen der Sonnenblume Sorte Peredovik werden in der V. oder VI.
Der Verbrauch an Sterilisationsmittel beträgt 1,2 kg/ke.

Sonnenblume Linie VK 119 = assay: Field trial of pollen sterilisation, sunflower line VK 119; settings: 0,2% aqueous emulsion, 1,2 kg/ha
[10] = V. or VI. period, read-out: Prozentsatz der Sterilität
[11] = read-out: Prozentsatz des Ansetzens bei freier Bestäubung, Chulpan, control = 100
[12] = V. or VI. period, listed as Beispiel 7I
[13] = control = 100, read-out: Prozentsatz des Ansetzens bei freier Bestäubung

## Nc1ccc(O)c(C(=O)O)c1 [Beispiel 51, Äthanolaminsalz der 5-Aminosalizylsäure]
[1]; V. or VI. period
  Anzahl von Körnern der Ähre im Isolator: I,I
[1]; [10]
  percent sterility at 10000 g/ha: 97.3%
[1]
  response vs control in vivo at 10000 g/ha: 99.5%
In vivo; LD50, weisse Mäuse
  LD50: 2400 mg/kg
[2]; Chulpan
  Anzahl von Körnern der Ähre bei freier Bestäubung: 55,6
  Anzahl von Körnern der Ähre im Isolator: 2,1
  percent sterility at 10000 g/ha: 96%
[2]; [11]
  response vs control in vivo at 10000 g/ha: 92.8%

## O=C(O)c1ccccc1F [Beispiel I4, Monoäthanolaminsalz der Orthofluorbenzoesäure]
[1]; [12]
  Anzahl von Körnern der Ähre bei freier Bestäubung: 43,5
  Anzahl von Körnern der Ähre im Isolator: 0,0
[1]; control = 100, listed as Beispiel 7I
  Prozentsatz des Ansetzens bei freier Bestäubung: 98,2%
In vivo; LD50, weisse Mäuse
  LD50: 700 mg/kg
[2]; Chulpan, listed as Beispiel 56
  Anzahl von Körnern der Ähre bei freier Bestäubung: 56,2
  Anzahl von Körnern der Ähre im Isolator: 0,1
[2]; Chulpan, control = 100, listed as Beispiel 56
  Prozentsatz des Ansetzens bei freier Bestäubung: 99,1%
[3]
  Anzahl von Körnern der Ähre bei freier Bestäubung: 36,2
  Anzahl von Körnern der Ähre im Isolator: 5,3
  pest or weed control at 20000 g/ha: 85.9%
  response vs control in vivo at 20000 g/ha: 89.3%

## OCC(O)COc1ccc(Cl)cc1Cl (centres unmarked) [Beispiel 6, 3-(2',4'-Dichlorphenoxy)-propandiol-I,2]
[4]
  Anzahl von Körnern der Ähre bei freier Bestäubung: 41,6
  Anzahl von Körnern der Ähre im Isolator: 0,0
  Prozentsatz der Sterilität: 100%
  Prozentsatz des Ansetzens bei freier Bestäubung: 90,2%
[3]
  Anzahl von Körnern der Ähre bei freier Bestäubung: 35,0
  Anzahl von Körnern der Ähre im Isolator: 0,8
  percent sterility at 20000 g/ha: 97.9%
  response vs control in vivo at 20000 g/ha: 86.4%
[5]; 10 kg/ha
  Anzahl von Körnern der Ähre bei freier Bestäubung: 26,0
  Anzahl von Körnern der Ähre im Isolator: 0,1
  percent sterility at 10000 g/ha: 99.9%
[5]; 10 kg/ha, control = 100, read-out: Prozentsatz des Ansetzens bei freier Bestäubung
  response vs control in vivo at 10000 g/ha: 94.5%

## Äthanolaminsalz der Tetraphthalsäure [Beispiel 34]
Roggen Sorte Voskhod 2
  Anzahl von Körnern der Ähre bei freier Bestäubung: 54,0
  Anzahl von Körnern der Ähre im Isolator: 1,2
  Prozentsatz der Sterilität: 97,6%
  Prozentsatz des Ansetzens bei freier Bestäubung: 98,9%

## OCC(O)CSc1cccc(Cl)c1 (centres unmarked) [Beispiel 8, 3-(3'-Chlorphenylthio)-propandiol-1,2]
In vivo; LD50, weisse Mäuse
  LD50: 400 mg/kg
[6]
  Anzahl von Körnern der Rispe bei freier Bestäubung: 100,8
  Anzahl von Körnern der Rispe im Isolator: 0,0
  Prozentsatz der Sterilität: 100%
  Prozentsatz des Ansetzens bei freier Bestäubung: 68,7%
[2]; Chulpan
  Anzahl von Körnern der Ähre bei freier Bestäubung: 52,1
  Anzahl von Körnern der Ähre im Isolator: 0,0
  percent sterility at 10000 g/ha: 100%
[2]; [11]
  response vs control in vivo at 10000 g/ha: 91.9%
[3]
  Anzahl von Körnern der Ähre bei freier Bestäubung: 32,7
  Anzahl von Körnern der Ähre im Isolator: 2,6
  response vs control in vivo at 20000 g/ha: 80.7%
[5]; 10 kg/ha
  Anzahl von Körnern der Ähre bei freier Bestäubung: 24,6
  Anzahl von Körnern der Ähre im Isolator: 0,8
  percent sterility at 10000 g/ha: 99.7%
[5]; [13]
  response vs control in vivo: 89.5%

## O=[N+]([O-])c1ccc(OCC(O)CO)cc1 (centres unmarked) [Beispiel 9, 3-(4'-Nitrophenoxy)-propandiol-I,2]
[1]; V. or VI. period
  Anzahl von Körnern der Ähre bei freier Bestäubung: 39,7
  Anzahl von Körnern der Ähre im Isolator: 0,0
[1]
  response vs control in vivo at 10000 g/ha: 89.6%
In vivo; LD50, weisse Mäuse
  LD50: 100 to 600 mg/kg
[7]
  Anzahl von Körnern der Ähre bei freier Bestäubung: 45,0
  Anzahl von Körnern der Ähre im Isolator: 0,0
  Prozentsatz der Sterilität: 100%
  Prozentsatz des Ansetzens bei freier Bestäubung: 84,1%
[2]; Chulpan
  Anzahl von Körnern der Ähre bei freier Bestäubung: 51,7
  Anzahl von Körnern der Ähre im Isolator: 0,7
  percent sterility at 10000 g/ha: 98.7%
[2]; [11]
  response vs control in vivo at 10000 g/ha: 91.2%
[3]
  Anzahl von Körnern der Ähre bei freier Bestäubung: 34,0
  Anzahl von Körnern der Ähre im Isolator: 4,8
  percent sterility at 20000 g/ha: 85.2%
  response vs control in vivo at 20000 g/ha: 83.9%
[8]; V. or VI. period
  Anzahl von Körnern der Rispe bei freier Bestäubung: 311,6
  Anzahl von Körnern der Rispe im Isolator: 0,0
[8]; [10]
  percent pollen sterility at 10000 g/ha: 100%
[8]
  response vs control in vivo at 10000 g/ha: 82.1%

## Nc1ccc(C(=O)O)cc1 [Beispiel 38, Äthanolaminsalz der p-Aminobenzoesäure]
In vivo; LD50, weisse Mäuse
  LD50: 2850 mg/kg
[7]
  Anzahl von Körnern der Ähre bei freier Bestäubung: 52,8
  Anzahl von Körnern der Ähre im Isolator: 3,2
  Prozentsatz der Sterilität: 93,4%
  Prozentsatz des Ansetzens bei freier Bestäubung: 97,8%

## O=C(COc1ccc(F)cc1)OCCCl [Beispiel I, β-Chloräthylester der 4-Fluorphenoxyessigsäure]
In vivo; LD50, weisse Mäuse
  LD50: 400 mg/kg
[7]
  Anzahl von Körnern der Ähre bei freier Bestäubung: 45,6
  Anzahl von Körnern der Ähre im Isolator: 0,0
  Prozentsatz der Sterilität: 100%
  Prozentsatz des Ansetzens bei freier Bestäubung: 84,4%
[4]
  Anzahl von Körnern der Ähre bei freier Bestäubung: 42,7
  Anzahl von Körnern der Ähre im Isolator: 0,0
  Prozentsatz der Sterilität: 100%
  Prozentsatz des Ansetzens bei freier Bestäubung: 94,7%
[3]
  Anzahl von Körnern der Ähre bei freier Bestäubung: 30,4
  percent sterility at 20000 g/ha: 99.8%
[5]; 10 kg/ha
  Anzahl von Körnern der Ähre bei freier Bestäubung: 23,8
  Anzahl von Körnern der Ähre im Isolator: 0,4
  percent sterility at 10000 g/ha: 98.5%
[5]; [13]
  response vs control in vivo: 86.5%

## O=C(COc1cc(F)c(Cl)cc1Cl)OCCCl [Beispiel I0, β -Chloräthylester der 2,4-Dichlor-5-fluornhenoxyessig-säure]
In vivo; LD50, weisse Mäuse
  LD50: 500 mg/kg
[3]
  Anzahl von Körnern der Ähre im Isolator: 0,6
  response vs control in vivo at 20000 g/ha: 74.3%

## ClCC1CO1 (centres unmarked) [Beispiel II, 3-Chlor-1,2-epoxypropan]
In vivo
  LD50: 238 mg/kg
Roggen Sorte Voskhod 2
  Anzahl von Körnern der Ähre bei freier Bestäubung: 51,7
  Anzahl von Körnern der Ähre im Isolator: 0,6
  Prozentsatz der Sterilität: 98,8%
  Prozentsatz des Ansetzens bei freier Bestäubung: 94,7%
[2]; Chulpan
  Anzahl von Körnern der Ähre bei freier Bestäubung: 48,9
  Anzahl von Körnern der Ähre im Isolator: 0,0
[2]
  pest or weed control at 10000 g/ha: 100%
[2]; [11]
  response vs control in vivo at 10000 g/ha: 86.2%
[9]
  Pollensterilität in %: 100%
  Ansetzen von Achänen bei freier Bestäubung in %: 82,3%
  Ansetzen von Achänen im Isolator bei der Bestäubung mit dem Pollengemisch in %: 0,0%
[3]
  pest or weed control at 20000 g/ha: 99.8%
  response vs control in vivo at 20000 g/ha: 77.5%
Sonnenblume Linie VK 119
  Ansetzen von Achänen bei freier Bestäubung in %: 85,0%
  Ansetzen von Achänen im Isolator bei der Bestäubung mit dem Pollengemisch in %: 0,0%
  Pollensterilität in %: 100%
[8]; V. or VI. period
  Anzahl von Körnern der Rispe bei freier Bestäubung: 312,3
  Anzahl von Körnern der Rispe im Isolator: 0,0
[8]; [10]
  pest or weed control at 10000 g/ha: 100%
[8]
  response vs control in vivo at 10000 g/ha: 82.2%

## OCCCl [Beispiel 45, 2-Chloräthanol]
[1]; V. or VI. period
  Anzahl von Körnern der Ähre bei freier Bestäubung: 42,2
  Anzahl von Körnern der Ähre im Isolator: 0,0
[1]
  response vs control in vivo at 10000 g/ha: 95.3%
In vivo
  LD50: 580 mg/kg
[6]
  Anzahl von Körnern der Rispe bei freier Bestäubung: 130,5
  Anzahl von Körnern der Rispe im Isolator: 0,0
  Prozentsatz der Sterilität: 100%
  Prozentsatz des Ansetzens bei freier Bestäubung: 89,0%
[2]; Chulpan
  Anzahl von Körnern der Ähre bei freier Bestäubung: 80,2
  Anzahl von Körnern der Ähre im Isolator: 2,2
[2]
  pest or weed control at 10000 g/ha: 95.8%
[2]; [11]
  response vs control in vivo at 10000 g/ha: 88.5%
[9]
  Pollensterilität in %: 100%
  Ansetzen von Achänen bei freier Bestäubung in %: 83,9%
  Ansetzen von Achänen im Isolator bei der Bestäubung mit dem Pollengemisch in %: 0,0%
Sonnenblume Linie VK 119
  Ansetzen von Achänen bei freier Bestäubung in %: 83,5%
  Ansetzen von Achänen im Isolator bei der Bestäubung mit dem Pollengemisch in %: 0,0%
  Pollensterilität in %: 100%

## CCC(CO)(CO)CBr [Beispiel 53, monobromsubstituiertem Etriol]
[2]; Chulpan
  Anzahl von Körnern der Ähre bei freier Bestäubung: 55,8
  Anzahl von Körnern der Ähre im Isolator: 4,8
  percent sterility at 10000 g/ha: 91.8%
[2]; Chulpan, control = 100, read-out: Prozentsatz des Ansetzens bei freier Bestäubung
  response vs control in vivo at 10000 g/ha: 98.4%
